From US12115373B2, “Methods for reducing the risk of strokes by pharmacotherapy to reduce the number and duration of atrial fibrillations” (Xyra, LLC, priority 2022, dated 2024)

Assays:
[1] = tested on: patients; experiment: Clinical trial: longest duration episode of AFib at each dose, per subject (Example 7); format: in vivo; settings: for longest duration episode of AFib / longest duration episode of AFib, Total: 2 Weeks; for longest duration episode of AFib, Total: Total of subjects
Excerpt: This example is a clinical trial evaluation of 6 patients treated with different doses of budiodarone each for a two-week period to determine the longest duration episode of AFib experienced at each dose. In this example, the patients' heart rhythms were continuously monitored over a twelve-week period with a pacemaker.

[2] = tested on: patients with either paroxysmal or persistent AFib; experiment: Clinical trial: episodes of long duration AFib (>5 hrs), pacemaker monitoring (Example 4); format: in vivo; settings: for Episodes of AFib > 5 hrs: Duration, percentage relative to the baseline / Episodes of AFib > 5 hrs: Duration / Episodes of AFib > 5 hrs: Number: 2 week period; for Episodes of AFib > 5 hrs: Duration / Episodes of AFib > 5 hrs: Number: 6 patients
Method: This example is a clinical trial evaluation of budiodarone in treating 6 patients with either paroxysmal or persistent AFib who previously evidenced episodes of long duration AFib (greater than 5 hrs). In this example, the patients' heart rhythms were continuously monitored over a twelve-week period with a pacemaker (surgically invasive procedure) and were treated with different doses (2 weeks each) of budiodarone. In addition, during this trial, the patients were under continuous monitoring and constant clinician supervision.
The purpose of this example is to establish whether budiodarone reduces long duration AFib lasting more than 5 hours in a clinical study setting using a pacemaker to evaluate the heart rhythm.
“Number” indicates the number of long duration episodes of AFib having a duration of greater than 5 hours. “Duration” indicates the amount of time during the 2 week period spent in the greater than 5 hour duration AFib, indicated in hours and a percentage relative to the baseline measurement. […] Finally, the 800 mg bid performed best. In all doses, the reduction in episodes of AFib of greater than 5 hours were above 85% and the corresponding reduction in AFib burden was above 90%.

[3] = in vivo; cited from earlier work
[4] = Serum half-life of budiodarone; format: in vivo; settings: human
[5] = tested on: patients with either paroxysmal or persistent AFib; experiment: Clinical trial: episodes of longer duration AFib (>24 hrs), pacemaker monitoring (Example 3); format: in vivo; settings: 2-week period; for Episodes of AFib > 24 hrs: Duration / Episodes of AFib > 24 hrs: Number: 6 patients
Method: This example is a clinical trial evaluation of budiodarone in treating 6 patients with either paroxysmal or persistent AFib who previously evidenced episodes of long duration AFib (greater than 24 hrs). In this example, the patients' heart rhythms were continuously monitored over a twelve-week period with a pacemaker (surgically invasive procedure) and were treated with different doses (2 weeks each) of budiodarone. In addition, during this trial, the patients were under continuous monitoring and constant clinician supervision.
The purpose of this example is to establish whether budiodarone treatment can reduce longer duration AFib (AFib episodes lasting more than 24 hours) in a clinical study setting and using a pacemaker to evaluate heart rhythm.
“Number” indicates the number of longer duration episodes of AFib (i.e., having a duration of greater than 24 hours). “Duration” indicates the amount of time during the 2-week period spent in the longer duration indicated in hours and a percentage relative to the baseline measurement. As per the above results, 200 mg b.i.d. was sufficient to treat all patients in the study by eliminating the number of episodes of AFib lasting over 24 hours. In this case, dose escalation was not required to improve patient efficacy as the 200 mg bid doses of budiodarone were sufficient to eliminate these long duration episodes of AFib.

[6] = tested on: patients with either paroxysmal or persistent AFib; experiment: Clinical trial: episodes of AFib greater than 6 minutes (0.1 hour), pacemaker monitoring (Example 6); format: in vivo; settings: for Episodes of AFib > 0.1 hrs: Duration, percent of Off Drug (baseline) / Episodes of AFib > 0.1 hrs: Number, percent of Off Drug (baseline): 2 weeks (baseline 4 weeks); for Episodes of AFib > 0.1 hrs: Number / Episodes of AFib > 0.1 hrs: Duration: all tested patients, 2 weeks; for Episodes of AFib > 0.1 hrs: Duration: cumulative; for Episodes of AFib > 0.1 hrs: Fraction of hours: hours in AFib / hours monitored
Method: In this example, the patients' heart rhythm was continuously monitored over a twelve-week period with a pacemaker. The patients were treated with different doses (2 weeks each) of budiodarone. In addition, during this trial, the patients were under continuous monitoring and clinician supervision.
The “Number” indicates the number of AFib episodes greater than 6 minutes for all tested patients over the trial period (4 weeks for based line, 2 weeks experimental). The “Duration” in hours indicates the cumulative duration in hours over the trial period that the tested patients were measured in episodes of AFib greater than 6 minutes.
Table 8 provides a summary of the fraction of time and the number of hours per week that the patients were in episodes of AFib greater than 6 minutes in duration, on average. The percent time in AFib was reduced by 90% for doses of budiodarone at 600 mg bid and 800 mg bid.

SMILES: CC[C@H](C)OC(=O)Cc1oc2ccccc2c1C(=O)c1cc(I)c(OCCN(CC)CC)c(I)c1 [budiodarone, (S)-sec-butyl2-(3-(4-(2-(diethylamino)ethoxy)-3,5-diiodobenzoyl)benzofuran-2-yl)acetate]
- dose required to eliminate all episodes of long duration AFib (>5 hrs) ([1]; Subject 1): 800 mg bid
- longest duration episode of AFib ([1]; Subject 1, 200 mg bid): 5 h
- longest duration episode of AFib ([1]; Subject 1, 400 mg bid): 8 h
- longest duration episode of AFib ([1]; Subject 1, 600 mg bid): 7 h
- longest duration episode of AFib ([1]; Subject 1, 800 mg bid): 3 h
- longest duration episode of AFib ([1]; Subject 2, 200 mg bid): 6 h
- longest duration episode of AFib ([1]; Subject 2, 400 mg bid): 13 h
- longest duration episode of AFib ([1]; Subject 2, 600 mg bid): 0 h
- longest duration episode of AFib ([1]; Subject 2, 800 mg bid): 5 h
- longest duration episode of AFib ([1]; Subject 3, 200 mg bid): 7 h
- longest duration episode of AFib ([1]; Subject 4, 200 mg bid): 0 h
- longest duration episode of AFib ([1]; Subject 4, 400 mg bid): 2 h
- longest duration episode of AFib ([1]; Subject 4, 600 mg bid): 2 h
- longest duration episode of AFib ([1]; Subject 4, 800 mg bid): 1 h
- longest duration episode of AFib ([1]; Subject 5, 200 mg bid): 3 h
- longest duration episode of AFib ([1]; Subject 5, 400 mg bid): 2 h
- longest duration episode of AFib ([1]; Subject 5, 600 mg bid): 0.8 h
- longest duration episode of AFib ([1]; Subject 5, 800 mg bid): 1.6 h
- dose required to eliminate all episodes ([1]; Subject 6): 600 mg bid
- longest duration episode of AFib ([1]; Subject 6, 200 mg bid): 6 h
- longest duration episode of AFib ([1]; Subject 6, 400 mg bid): 10 h
- longest duration episode of AFib ([1]; Subject 6, 600 mg bid): 0 h
- longest duration episode of AFib ([1]; Subject 6, 800 mg bid): 3 h
- dose sufficient to eliminate all episodes of long duration AFib (>5 hrs) ([1]; Subjects 4 and 5): 200 mg twice a day
- longest duration episode of AFib, Total ([1]; 200 mg bid): 21 h
- longest duration episode of AFib, Total ([1]; 400 mg bid): 33 h
- longest duration episode of AFib, Total ([1]; 600 mg bid): 7.8 h
- longest duration episode of AFib, Total ([1]; 800 mg bid): 13.6 h
- Episodes of AFib > 5 hrs: Duration, percentage relative to the baseline ([2]; 200 mg bid): (3.5%)
- Episodes of AFib > 5 hrs: Duration ([2]; 200 mg bid): 17 h
- Episodes of AFib > 5 hrs: Number ([2]; 200 mg bid): 3
- Episodes of AFib > 5 hrs: Duration, percentage relative to the baseline ([2]; 400 mg bid): (7.7%)
- Episodes of AFib > 5 hrs: Duration ([2]; 400 mg bid): 38 h
- Episodes of AFib > 5 hrs: Number ([2]; 400 mg bid): 4
- Episodes of AFib > 5 hrs: Duration, percentage relative to the baseline ([2]; 600 mg bid): (2.8%)
- Episodes of AFib > 5 hrs: Duration ([2]; 600 mg bid): 14 h
- Episodes of AFib > 5 hrs: Number ([2]; 600 mg bid): 2
- Episodes of AFib > 5 hrs: Duration, percentage relative to the baseline ([2]; 800 mg bid): (1%)
- Episodes of AFib > 5 hrs: Duration ([2]; 800 mg bid): 5 h
- Episodes of AFib > 5 hrs: Number ([2]; 800 mg bid): 1
- corresponding reduction in AFib burden (episodes > 5 hours) ([2]; in all doses (200-800 mg bid)): above 90%
- reduction in episodes of AFib of greater than 5 hours ([2]; in all doses (200-800 mg bid)): above 85%
- increase in the QT interval [3]: without a significant increase in the QT interval
- half-life ([4]; after administration): 6 to 7 h
- time to reach steady state ([4]; read-out: steady state (about 5x the serum half-life)): 1800 to 2100 min
- Episodes of AFib > 24 hrs: Duration, percentage relative to the baseline ([5]; 200 mg bid): (0%)
- Episodes of AFib > 24 hrs: Duration ([5]; 200 mg bid): 0 h
- Episodes of AFib > 24 hrs: Number ([5]; 200 mg bid): 0
- Episodes of AFib > 24 hrs: Duration, percentage relative to the baseline ([5]; 400 mg bid): (0%)
- Episodes of AFib > 24 hrs: Duration ([5]; 400 mg bid): 0 h
- Episodes of AFib > 24 hrs: Number ([5]; 400 mg bid): 0
- Episodes of AFib > 24 hrs: Duration, percentage relative to the baseline ([5]; 600 mg bid): (0%)
- Episodes of AFib > 24 hrs: Duration ([5]; 600 mg bid): 0 h
- Episodes of AFib > 24 hrs: Number ([5]; 600 mg bid): 0
- Episodes of AFib > 24 hrs: Duration, percentage relative to the baseline ([5]; 800 mg bid): (0%)
- Episodes of AFib > 24 hrs: Duration ([5]; 800 mg bid): 0 h
- Episodes of AFib > 24 hrs: Number ([5]; 800 mg bid): 0
- Episodes of AFib > 0.1 hrs: Duration in hrs/week (average per patient) ([6]; 200 mg bid): 5.9 hrs/week
- Episodes of AFib > 0.1 hrs: Fraction of hours (percent), percent time in AFib ([6]; 200 mg bid): (3.5%)
- Episodes of AFib > 0.1 hrs: Duration, percent of Off Drug (baseline) ([6]; 200 mg bid): 11%
- Episodes of AFib > 0.1 hrs: Number, percent of Off Drug (baseline) ([6]; 200 mg bid): 52 (52%)
- Episodes of AFib > 0.1 hrs: Number ([6]; 200 mg bid): 52 (52%)
- Episodes of AFib > 0.1 hrs: Duration ([6]; 200 mg bid): 71 h
- Episodes of AFib > 0.1 hrs: Fraction of hours ([6]; 200 mg bid): 71/2016
- drop in percent time in AFib ([6]; 200 mg twice a day): 76.7%
- Episodes of AFib > 0.1 hrs: Duration in hrs/week (average per patient) ([6]; 400 mg bid): 5 hrs/week
- Episodes of AFib > 0.1 hrs: Fraction of hours (percent), percent time in AFib ([6]; 400 mg bid): (3.0%)
- Episodes of AFib > 0.1 hrs: Duration, percent of Off Drug (baseline) ([6]; 400 mg bid): 10%
- Episodes of AFib > 0.1 hrs: Number, percent of Off Drug (baseline) ([6]; 400 mg bid): 28 (28%)
- Episodes of AFib > 0.1 hrs: Number ([6]; 400 mg bid): 28 (28%)
- Episodes of AFib > 0.1 hrs: Duration ([6]; 400 mg bid): 61 h
- Episodes of AFib > 0.1 hrs: Fraction of hours ([6]; 400 mg bid): 61/2016
- Episodes of AFib > 0.1 hrs: Duration in hrs/week (average per patient) ([6]; 600 mg bid): 2.5 hrs/week
- Episodes of AFib > 0.1 hrs: Fraction of hours (percent), percent time in AFib ([6]; 600 mg bid): (1.5%)
- reduction of percent time in AFib ([6]; 600 mg bid and 800 mg bid (Table 8)): 90%
- reduction of the number of episodes of AFib longer than 6 minutes ([6]; 600 mg bid or 800 mg bid): more than 80%
- Episodes of AFib > 0.1 hrs: Duration, percent of Off Drug (baseline) ([6]; 600 mg bid): 4.8%
- Episodes of AFib > 0.1 hrs: Number, percent of Off Drug (baseline) ([6]; 600 mg bid): 16 (16%)
- Episodes of AFib > 0.1 hrs: Number ([6]; 600 mg bid): 16 (16%)
- Episodes of AFib > 0.1 hrs: Duration ([6]; 600 mg bid): 30 h
- Episodes of AFib > 0.1 hrs: Fraction of hours ([6]; 600 mg bid): 30/2016
- drop in percent time in AFib ([6]; 600 mg twice a day): 90%
- Episodes of AFib > 0.1 hrs: Duration in hrs/week (average per patient) ([6]; 800 mg bid): 1.3 hrs/week
- Episodes of AFib > 0.1 hrs: Fraction of hours (percent), percent time in AFib ([6]; 800 mg bid): (0.8%)
- Episodes of AFib > 0.1 hrs: Duration, percent of Off Drug (baseline) ([6]; 800 mg bid): 2.5%
- Episodes of AFib > 0.1 hrs: Number, percent of Off Drug (baseline) ([6]; 800 mg bid): 15 (15%)
- Episodes of AFib > 0.1 hrs: Number ([6]; 800 mg bid): 15 (15%)
- Episodes of AFib > 0.1 hrs: Duration ([6]; 800 mg bid): 16 h
- Episodes of AFib > 0.1 hrs: Fraction of hours ([6]; 800 mg bid): 16/2016
- drop in percent time in AFib ([6]; 800 mg twice a day): 94.8%
